Laboratory results published in PMC11876601 (Molecular Systems Biology, 2025).
Where two headings read alike, the source gives them in different places.

Assays:
Test in all cases: cells
AsPC-1 [1] = system: AsPC-1; parameters: ATPlite luminescence viability of PDAC cell lines, 11-dose single-agent curves, 4-parameter fit; details: Homo sapiens, ASPC1, 72 h, read-out: EC50 [nM]
Summary of the method: (§1)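 Drug-combination screening used cells plated at 1000 to 5000 per well one day before treatment. Final DMSO was 0.2%. Each plate held untreated negative-control wells and 5 µM staurosporine positive-control wells.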

BxPC-3 [2] = system: BxPC-3; parameters: ATPlite luminescence viability of PDAC cell lines, 11-dose single-agent curves, 4-parameter fit; details: Homo sapiens, BXPC-3, 72 h, read-out: EC50 [nM]
Summary of the method: as §1

MiaPaCa-2 [3] = system: MiaPaCa-2; parameters: ATPlite luminescence viability of PDAC cell lines, 11-dose single-agent curves, 4-parameter fit; details: Homo sapiens, MIA PaCa-2, 72 h, read-out: EC50 [nM]
Summary of the method: as §1

PSN-1 [4] = system: PSN-1; parameters: ATPlite luminescence viability of PDAC cell lines, 11-dose single-agent curves, 4-parameter fit; details: Homo sapiens, PSN1, 72 h, read-out: EC50 [nM]
Summary of the method: as §1

Suit2-07 [5] = system: Suit2-07; parameters: ATPlite luminescence viability of PDAC cell lines, 11-dose single-agent curves, 4-parameter fit; details: 72 h, read-out: EC50 [nM]
Summary of the method: as §1

Capan-1 = system: Capan-1; parameters: Viability of PDAC cell lines, ATPlite luminescence, 11-dose single-agent curve fit; details: Homo sapiens, CAPAN-1, 72 h, read-out: EC50 [nM]
Summary of the method: (§2)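 screening used cells plated at 1000 to 5000 per well one day before treatment. Final DMSO was 0.2%. Each plate held untreated negative-control wells and 5 µM staurosporine positive-control wells.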

Colo-357 [6] = system: Colo-357; parameters: Viability of PDAC cell lines, ATPlite luminescence, 11-dose single-agent curve fit; details: Homo sapiens, COLO357, 72 h, read-out: EC50 [nM]
Summary of the method: as §2

Dan-G [7] = system: Dan-G; parameters: Viability of PDAC cell lines, ATPlite luminescence, 11-dose single-agent curve fit; details: 72 h, read-out: EC50 [nM]
Summary of the method: as §2

FAMPAC = system: FAMPAC; parameters: Viability of PDAC cell lines, ATPlite luminescence, 11-dose single-agent curve fit; details: 72 h, read-out: EC50 [nM]
Summary of the method: as §2

HPDE = system: HPDE; parameters: Viability of PDAC cell lines, ATPlite luminescence, 11-dose single-agent curve fit; details: HPDE, 72 h, read-out: EC50 [nM]
Summary of the method: as §2

HuP-T4 = system: HuP-T4; parameters: Viability of PDAC cell lines, ATPlite luminescence, 11-dose single-agent curve fit; details: Homo sapiens, HuP-T4, 72 h, read-out: EC50 [nM]
Summary of the method: as §2

PANC-1 = system: PANC-1; parameters: Viability of PDAC cell lines, ATPlite luminescence, 11-dose single-agent curve fit; details: Homo sapiens, PANC-1, 72 h, read-out: EC50 [nM]
Summary of the method: as §2

PaTu-8988-T = system: PaTu-8988-T; parameters: Viability of PDAC cell lines, ATPlite luminescence, 11-dose single-agent curve fit; details: Homo sapiens, PaTu 8988t, 72 h, read-out: EC50 [nM]
Summary of the method: as §2

Colo-357 [8] = system: Colo-357; parameters: ATPlite luminescence viability of PDAC cell lines, 11-dose single-agent curves, 4-parameter fit; details: Homo sapiens, COLO357, 72 h, read-out: EC50 [nM]
Summary of the method: as §1

Dan-G [9] = system: Dan-G; parameters: ATPlite luminescence viability of PDAC cell lines, 11-dose single-agent curves, 4-parameter fit; details: 72 h, read-out: EC50 [nM]
Summary of the method: as §1

AsPC-1 [10] = system: AsPC-1; parameters: Viability of PDAC cell lines, ATPlite luminescence, 11-dose single-agent curve fit; details: Homo sapiens, ASPC1, 72 h, read-out: EC50 [nM]
Summary of the method: as §2

BxPC-3 [11] = system: BxPC-3; parameters: Viability of PDAC cell lines, ATPlite luminescence, 11-dose single-agent curve fit; details: Homo sapiens, BXPC-3, 72 h, read-out: EC50 [nM]
Summary of the method: as §2

MiaPaCa-2 [12] = system: MiaPaCa-2; parameters: Viability of PDAC cell lines, ATPlite luminescence, 11-dose single-agent curve fit; details: Homo sapiens, MIA PaCa-2, 72 h, read-out: EC50 [nM]
Summary of the method: as §2

PSN-1 [13] = system: PSN-1; parameters: Viability of PDAC cell lines, ATPlite luminescence, 11-dose single-agent curve fit; details: Homo sapiens, PSN1, 72 h, read-out: EC50 [nM]
Summary of the method: as §2

Suit2-07 [14] = system: Suit2-07; parameters: Viability of PDAC cell lines, ATPlite luminescence, 11-dose single-agent curve fit; details: 72 h, read-out: EC50 [nM]
Summary of the method: as §2

Compound	EC50 (AsPC-1 [1]) [nM]	EC50 (BxPC-3 [2]) [nM]	EC50 (MiaPaCa-2 [3]) [nM]	EC50 (PSN-1 [4]) [nM]	EC50 (Suit2-07 [5]) [nM]	EC50 (Capan-1) [nM]	EC50 (Colo-357 [6]) [nM]	EC50 (Dan-G [7]) [nM]	EC50 (FAMPAC) [nM]	EC50 (HPDE) [nM]	EC50 (HuP-T4) [nM]	EC50 (PANC-1) [nM]	EC50 (PaTu-8988-T) [nM]	EC50 (Colo-357 [8]) [nM]	EC50 (Dan-G [9]) [nM]	EC50 (AsPC-1 [10]) [nM]	EC50 (BxPC-3 [11]) [nM]	EC50 (MiaPaCa-2 [12]) [nM]	EC50 (PSN-1 [13]) [nM]	EC50 (Suit2-07 [14]) [nM]
COc1cc(CCc2cc(NC(=O)c3ccc(N4C[C@@H](C)N[C@@H](C)C4)cc3)n[nH]2)cc(OC)c1 [AZD4547]	> 10000	6320	> 10000	8650	9040	0.79	1080	0.1	> 10000	5300	9460	5350	7380	–	–	–	–	–	–	–
Cc1cc(Nc2ncnc3ccc(NC4=NC(C)(C)CO4)cc23)ccc1Oc1ccn2ncnc2c1 [Tucatinib]	–	–	–	–	–	121	–	–	7060	3660	292	5670	> 10000	240	222	> 10000	1010	7710	24.4	> 10000
CC[C@H](Nc1ncnc2[nH]cnc12)c1nc2cccc(F)c2c(=O)n1-c1ccccc1 [Idelalisib]	–	–	–	–	–	9330	–	–	> 10000	9240	754	3010	10000	3360	2130	2530	3910	8760	545	5950
